Reference: ChEMBL document CHEMBL4130634, “Discovery of Reversible DNA Methyltransferase and Lysine Methyltransferase G9a Inhibitors with Antitumoral in Vivo Efficacy” (J Med Chem, 2018)

What was measured:
MV4-11 = assay: Growth inhibition of human MV4-11 cells after 48 hrs by MTS assay; type: functional; settings: MV4-11, 48 h
[1] = target: T1, DNA (cytosine-5)-methyltransferase 1 (Homo sapiens, UniProt P26358); assay: Competitive inhibition of human DNMT1 using 1 to 100 ug/ml polydeoxyinosine polydeoxycytosine DNA as substrate after 15 mins in presence of SAM by TR-FRET assay
THLE-2 = assay: Growth inhibition of human THLE2 cells after 72 hrs by MTS assay; type: cell-based; settings: thle-2, 72 h
OCI-Ly3 [2] = assay: Growth inhibition of human OCI-LY3 cells at 1 uM after 48 hrs by MTS assay relative to control; type: functional; settings: OCI-Ly3, 48 h, read-out: GI
[3] = target: T2, Histone-lysine N-methyltransferase EHMT2 (Homo sapiens, UniProt Q96KQ7); assay: Inhibition of human G9a using biotinylated-H3K9 peptide as substrate after 1 hr in presence of SAM by TR-FRET assay
T2 sequence (Q96KQ7 whole entry): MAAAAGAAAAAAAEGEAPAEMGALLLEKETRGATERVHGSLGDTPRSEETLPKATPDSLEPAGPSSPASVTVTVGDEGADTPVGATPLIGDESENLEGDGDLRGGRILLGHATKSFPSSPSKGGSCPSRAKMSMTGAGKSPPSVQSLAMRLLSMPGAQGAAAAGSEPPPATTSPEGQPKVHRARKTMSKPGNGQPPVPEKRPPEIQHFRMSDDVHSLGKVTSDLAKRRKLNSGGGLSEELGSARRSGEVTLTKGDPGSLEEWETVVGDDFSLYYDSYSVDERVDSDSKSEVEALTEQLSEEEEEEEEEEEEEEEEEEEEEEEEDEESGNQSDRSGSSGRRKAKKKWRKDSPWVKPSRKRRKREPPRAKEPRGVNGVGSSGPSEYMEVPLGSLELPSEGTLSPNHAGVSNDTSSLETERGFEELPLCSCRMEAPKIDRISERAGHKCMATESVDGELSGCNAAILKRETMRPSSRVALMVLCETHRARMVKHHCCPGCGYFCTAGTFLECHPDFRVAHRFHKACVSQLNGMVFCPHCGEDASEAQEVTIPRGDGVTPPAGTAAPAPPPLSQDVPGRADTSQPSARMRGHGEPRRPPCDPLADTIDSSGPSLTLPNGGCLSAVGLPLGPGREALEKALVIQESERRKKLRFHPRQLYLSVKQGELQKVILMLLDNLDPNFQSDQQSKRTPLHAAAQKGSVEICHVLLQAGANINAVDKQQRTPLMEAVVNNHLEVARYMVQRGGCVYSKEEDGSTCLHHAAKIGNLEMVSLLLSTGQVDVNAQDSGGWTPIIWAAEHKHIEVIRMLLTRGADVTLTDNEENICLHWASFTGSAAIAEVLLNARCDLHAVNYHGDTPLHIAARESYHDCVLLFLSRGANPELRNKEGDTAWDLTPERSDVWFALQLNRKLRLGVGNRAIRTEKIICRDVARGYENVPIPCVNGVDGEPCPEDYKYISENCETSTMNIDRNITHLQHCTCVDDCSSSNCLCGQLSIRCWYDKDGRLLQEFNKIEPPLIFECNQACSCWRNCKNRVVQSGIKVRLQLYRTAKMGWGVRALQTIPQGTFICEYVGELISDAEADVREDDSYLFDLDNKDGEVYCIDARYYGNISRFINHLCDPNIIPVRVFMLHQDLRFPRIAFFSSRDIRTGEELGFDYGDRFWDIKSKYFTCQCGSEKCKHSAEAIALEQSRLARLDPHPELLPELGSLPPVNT

[4] = target: T2, Histone-lysine N-methyltransferase EHMT2; assay: Non-competitive inhibition of human G9a using biotinylated-H3K9 peptide as substrate after 1 hr in presence of 2 to 640 uM SAM by TR-FRET assay
[5] = Growth inhibition of human CEMO1 cells after 48 hrs by MTS assay; type: functional
OCI-Ly10 [6] = assay: Growth inhibition of human OCI-LY10 cells at 1 uM after 48 hrs by MTS assay relative to control; type: functional; settings: OCI-Ly10, 48 h, read-out: GI
[7] = target: T1, DNA (cytosine-5)-methyltransferase 1; assay: Non-competitive inhibition of human DNMT1 using polydeoxyinosine polydeoxycytosine DNA as substrate after 15 mins in presence of 1 to 20 uM SAM by TR-FRET assay
[8] = target: T2, Histone-lysine N-methyltransferase EHMT2; assay: Competitive inhibition of human G9a using 40 to 2560 nM biotinylated-H3K9 peptide as substrate after 1 hr in presence of SAM by TR-FRET assay
[9] = target: T1, DNA (cytosine-5)-methyltransferase 1; assay: Inhibition of human DNMT1 using polydeoxyinosine polydeoxycytosine DNA as substrate after 15 mins in presence of SAM by TR-FRET assay
[10] = target: T3, Histone-lysine N-methyltransferase EHMT1 (Homo sapiens, UniProt Q9H9B1); assay: Inhibition of recombinant human GLP using histone H3 peptide as substrate after 120 mins in presence of [3H]SAM by radiometric assay
T3 sequence (Q9H9B1 whole entry): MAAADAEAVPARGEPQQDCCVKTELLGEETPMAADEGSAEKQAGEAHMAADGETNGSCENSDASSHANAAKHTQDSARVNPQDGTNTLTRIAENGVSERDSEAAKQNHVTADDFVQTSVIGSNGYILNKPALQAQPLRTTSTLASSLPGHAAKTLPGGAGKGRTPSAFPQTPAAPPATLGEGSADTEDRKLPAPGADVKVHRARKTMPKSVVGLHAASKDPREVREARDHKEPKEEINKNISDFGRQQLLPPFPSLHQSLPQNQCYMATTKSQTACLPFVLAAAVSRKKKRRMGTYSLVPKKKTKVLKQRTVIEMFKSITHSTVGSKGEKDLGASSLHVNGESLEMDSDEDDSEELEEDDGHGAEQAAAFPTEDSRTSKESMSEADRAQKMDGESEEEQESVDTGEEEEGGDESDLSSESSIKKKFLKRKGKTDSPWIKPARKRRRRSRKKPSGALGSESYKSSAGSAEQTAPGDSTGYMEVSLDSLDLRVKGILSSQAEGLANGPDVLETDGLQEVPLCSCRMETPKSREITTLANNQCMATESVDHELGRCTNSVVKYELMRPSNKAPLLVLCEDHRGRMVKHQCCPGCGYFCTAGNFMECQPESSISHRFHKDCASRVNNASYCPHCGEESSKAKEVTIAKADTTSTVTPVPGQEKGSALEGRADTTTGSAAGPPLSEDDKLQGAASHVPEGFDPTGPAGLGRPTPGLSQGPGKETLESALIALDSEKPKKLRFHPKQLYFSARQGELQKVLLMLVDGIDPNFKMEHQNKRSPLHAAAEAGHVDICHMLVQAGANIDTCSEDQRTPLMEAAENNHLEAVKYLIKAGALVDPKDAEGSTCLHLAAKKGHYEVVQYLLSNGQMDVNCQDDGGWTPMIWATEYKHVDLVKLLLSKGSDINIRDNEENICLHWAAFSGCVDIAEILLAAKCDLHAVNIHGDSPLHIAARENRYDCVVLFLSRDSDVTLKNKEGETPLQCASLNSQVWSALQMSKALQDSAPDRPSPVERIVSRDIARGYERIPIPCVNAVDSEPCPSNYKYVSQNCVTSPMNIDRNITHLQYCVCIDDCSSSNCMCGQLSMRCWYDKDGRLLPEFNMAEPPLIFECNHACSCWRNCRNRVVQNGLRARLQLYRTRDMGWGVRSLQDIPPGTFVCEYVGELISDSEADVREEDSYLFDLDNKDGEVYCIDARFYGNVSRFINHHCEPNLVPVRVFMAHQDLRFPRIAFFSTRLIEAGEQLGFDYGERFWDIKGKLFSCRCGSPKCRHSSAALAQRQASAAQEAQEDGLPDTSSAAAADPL

[11] = Growth inhibition of human CEMO1 cells at 10 uM after 48 hrs by MTS assay relative to control; type: functional; settings: read-out: GI
[12] = Permeability of the compound at 50 uM after 18 hrs by PAMPA; type: ADME; settings: read-out: permeability
CYP2C19 = CYP2C19 (Homo sapiens, UniProt P33261); assay: Inhibition of CYP2C19 in human liver microsomes at 10 uM after 10 mins in presence of NADPH by LC-MS/MS analysis relative to control; type: ADME
[13] = Metabolic stability in human liver microsomes assessed as parent compound remaining at 1 uM preincubated for 10 mins followed by NADP addition after 20 mins by LC-MS/MS analysis; type: ADME, microsome; settings: microsomes, 20 min, 1 µM
CYP1A2 = target: T4, CYP1A2 (Homo sapiens, UniProt P05177); assay: Inhibition of CYP1A2 in human liver microsomes at 10 uM after 10 mins in presence of NADPH by LC-MS/MS analysis relative to control; type: ADME
T4 sequence (P05177 whole entry): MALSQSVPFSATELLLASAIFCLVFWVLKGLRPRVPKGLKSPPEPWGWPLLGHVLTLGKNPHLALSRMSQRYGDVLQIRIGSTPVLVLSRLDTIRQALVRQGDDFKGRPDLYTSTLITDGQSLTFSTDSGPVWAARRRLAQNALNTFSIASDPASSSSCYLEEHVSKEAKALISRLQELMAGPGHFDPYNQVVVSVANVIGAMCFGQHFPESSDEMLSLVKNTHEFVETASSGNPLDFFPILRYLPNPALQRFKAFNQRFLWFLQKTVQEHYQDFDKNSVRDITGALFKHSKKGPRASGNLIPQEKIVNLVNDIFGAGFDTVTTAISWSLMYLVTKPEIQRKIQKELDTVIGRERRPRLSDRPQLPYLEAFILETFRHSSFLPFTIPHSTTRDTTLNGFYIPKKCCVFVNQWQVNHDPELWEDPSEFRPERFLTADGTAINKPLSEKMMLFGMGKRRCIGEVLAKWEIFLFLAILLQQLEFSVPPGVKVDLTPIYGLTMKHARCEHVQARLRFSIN

OCI-Ly3 [14] = assay: Growth inhibition of human OCI-LY3 cells after 48 hrs by MTS assay; type: functional; settings: OCI-Ly3, 48 h
[15] = Metabolic stability in mouse liver microsomes assessed as parent compound remaining at 1 uM preincubated for 10 mins followed by NADP addition after 20 mins by LC-MS/MS analysis; type: ADME, microsome; settings: read-out: Stability
[16] = Half life in mouse liver microsomes at 1 uM preincubated for 10 mins followed by NADP addition after 20 mins by LC-MS/MS analysis; type: ADME, microsome
OCI-Ly10 [17] = assay: Growth inhibition of human OCI-LY10 cells after 48 hrs by MTS assay; type: functional; settings: OCI-Ly10, 48 h
CYP2C9 = CYP2C9 (Homo sapiens, UniProt P11712); assay: Inhibition of CYP2C9 in human liver microsomes at 10 uM after 10 mins in presence of NADPH by LC-MS/MS analysis relative to control; type: ADME
CYP2D6 = CYP2D6 (Homo sapiens, UniProt P10635); assay: Inhibition of CYP2D6 in human liver microsomes at 10 uM after 10 mins in presence of NADPH by LC-MS/MS analysis relative to control; type: ADME
CYP3A4 = CYP3A4 (Homo sapiens, UniProt P08684); assay: Inhibition of CYP3A4 in human liver microsomes at 10 uM after 10 mins in presence of NADPH by LC-MS/MS analysis relative to control; type: ADME
[18] = Half life in human liver microsomes at 1 uM preincubated for 10 mins followed by NADP addition after 20 mins by LC-MS/MS analysis; type: ADME, microsome; settings: microsomes, 20 min, 1 µM
[19] = Growth inhibition of human LAL-CUN-2 cells at 10 uM after 48 hrs by MTS assay relative to control; type: functional; settings: read-out: GI

T1 sequence (P26358 whole entry): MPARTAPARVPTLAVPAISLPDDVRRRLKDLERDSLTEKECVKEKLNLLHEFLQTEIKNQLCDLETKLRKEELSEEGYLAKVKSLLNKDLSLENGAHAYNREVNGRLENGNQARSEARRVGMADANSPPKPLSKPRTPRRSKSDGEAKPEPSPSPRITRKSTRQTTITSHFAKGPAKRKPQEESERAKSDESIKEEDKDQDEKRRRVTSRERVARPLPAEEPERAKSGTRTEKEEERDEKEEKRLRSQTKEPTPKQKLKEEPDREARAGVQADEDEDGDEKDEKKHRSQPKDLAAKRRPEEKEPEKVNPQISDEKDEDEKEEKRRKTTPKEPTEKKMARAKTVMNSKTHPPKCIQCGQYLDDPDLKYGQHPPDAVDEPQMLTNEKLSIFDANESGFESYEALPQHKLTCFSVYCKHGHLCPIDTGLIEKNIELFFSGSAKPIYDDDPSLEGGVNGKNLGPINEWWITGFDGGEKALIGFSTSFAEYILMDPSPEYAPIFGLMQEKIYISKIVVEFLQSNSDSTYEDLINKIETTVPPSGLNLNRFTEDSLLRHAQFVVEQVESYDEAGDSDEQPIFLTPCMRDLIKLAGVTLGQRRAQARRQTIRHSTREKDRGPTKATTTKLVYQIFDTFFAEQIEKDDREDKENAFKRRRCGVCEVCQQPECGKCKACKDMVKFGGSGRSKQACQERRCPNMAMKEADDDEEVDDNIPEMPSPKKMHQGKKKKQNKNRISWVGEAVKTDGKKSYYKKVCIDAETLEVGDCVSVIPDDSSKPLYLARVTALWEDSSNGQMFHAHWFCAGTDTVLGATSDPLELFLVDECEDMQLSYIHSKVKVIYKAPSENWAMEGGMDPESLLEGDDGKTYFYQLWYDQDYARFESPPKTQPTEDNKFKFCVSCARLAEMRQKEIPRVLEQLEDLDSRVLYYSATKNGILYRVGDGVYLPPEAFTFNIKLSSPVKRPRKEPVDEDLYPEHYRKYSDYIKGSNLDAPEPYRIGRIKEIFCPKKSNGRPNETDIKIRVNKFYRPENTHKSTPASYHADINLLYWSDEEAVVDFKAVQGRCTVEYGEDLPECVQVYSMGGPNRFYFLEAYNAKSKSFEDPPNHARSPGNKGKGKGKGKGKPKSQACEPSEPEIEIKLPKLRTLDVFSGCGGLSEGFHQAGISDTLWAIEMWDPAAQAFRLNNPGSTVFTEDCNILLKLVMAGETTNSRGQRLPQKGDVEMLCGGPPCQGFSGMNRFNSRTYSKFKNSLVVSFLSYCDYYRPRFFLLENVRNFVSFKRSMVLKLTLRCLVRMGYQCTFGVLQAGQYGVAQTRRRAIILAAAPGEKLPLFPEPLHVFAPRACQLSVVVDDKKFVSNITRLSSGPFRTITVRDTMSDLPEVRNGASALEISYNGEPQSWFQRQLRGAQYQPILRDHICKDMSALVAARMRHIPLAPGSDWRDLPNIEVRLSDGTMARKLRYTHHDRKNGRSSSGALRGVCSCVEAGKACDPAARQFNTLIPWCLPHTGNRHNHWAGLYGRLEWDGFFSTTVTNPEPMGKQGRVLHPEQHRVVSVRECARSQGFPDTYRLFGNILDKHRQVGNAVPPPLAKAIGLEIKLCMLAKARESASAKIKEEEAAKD
CYP3A4, sequence (P08684 whole entry): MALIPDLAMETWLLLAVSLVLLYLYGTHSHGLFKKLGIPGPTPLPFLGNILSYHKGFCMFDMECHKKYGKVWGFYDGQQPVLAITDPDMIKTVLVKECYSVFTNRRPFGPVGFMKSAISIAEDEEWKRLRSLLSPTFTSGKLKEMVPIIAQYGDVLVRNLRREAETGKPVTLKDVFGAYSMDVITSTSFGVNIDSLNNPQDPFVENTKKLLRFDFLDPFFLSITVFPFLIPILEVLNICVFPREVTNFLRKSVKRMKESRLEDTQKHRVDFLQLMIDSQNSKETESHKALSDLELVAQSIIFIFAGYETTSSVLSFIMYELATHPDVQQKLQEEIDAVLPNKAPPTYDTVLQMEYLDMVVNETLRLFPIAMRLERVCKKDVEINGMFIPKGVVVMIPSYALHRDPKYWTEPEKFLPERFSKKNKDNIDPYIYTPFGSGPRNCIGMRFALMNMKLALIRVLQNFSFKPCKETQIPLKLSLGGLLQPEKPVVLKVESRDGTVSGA
CYP2C9, sequence (P11712 whole entry): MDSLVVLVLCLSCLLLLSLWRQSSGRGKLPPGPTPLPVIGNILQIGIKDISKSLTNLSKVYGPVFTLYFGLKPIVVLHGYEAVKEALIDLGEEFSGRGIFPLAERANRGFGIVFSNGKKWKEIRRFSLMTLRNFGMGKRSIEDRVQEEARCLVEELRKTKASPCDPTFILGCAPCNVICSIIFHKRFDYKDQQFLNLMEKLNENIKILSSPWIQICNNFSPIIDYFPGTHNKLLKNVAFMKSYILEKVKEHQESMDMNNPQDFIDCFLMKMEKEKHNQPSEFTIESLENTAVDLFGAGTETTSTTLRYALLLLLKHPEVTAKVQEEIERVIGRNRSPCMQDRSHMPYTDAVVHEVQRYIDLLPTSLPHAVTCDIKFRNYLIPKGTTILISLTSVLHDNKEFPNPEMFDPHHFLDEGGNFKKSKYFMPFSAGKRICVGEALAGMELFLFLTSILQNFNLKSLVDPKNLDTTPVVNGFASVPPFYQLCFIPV
CYP2D6, sequence (P10635 whole entry): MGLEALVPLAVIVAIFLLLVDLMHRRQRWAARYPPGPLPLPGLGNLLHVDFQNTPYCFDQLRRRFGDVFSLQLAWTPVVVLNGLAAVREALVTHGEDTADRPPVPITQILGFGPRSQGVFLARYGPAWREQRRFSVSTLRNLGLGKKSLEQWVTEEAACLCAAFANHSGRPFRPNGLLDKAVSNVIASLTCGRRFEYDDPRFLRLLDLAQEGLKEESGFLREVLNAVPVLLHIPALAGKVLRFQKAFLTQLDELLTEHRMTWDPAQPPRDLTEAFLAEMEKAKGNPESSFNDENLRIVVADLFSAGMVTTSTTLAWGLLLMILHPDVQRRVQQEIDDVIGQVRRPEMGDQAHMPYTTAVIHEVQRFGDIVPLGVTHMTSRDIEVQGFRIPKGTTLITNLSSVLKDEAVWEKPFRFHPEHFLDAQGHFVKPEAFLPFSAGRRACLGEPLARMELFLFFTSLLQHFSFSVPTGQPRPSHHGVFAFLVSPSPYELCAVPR
CYP2C19, sequence (P33261 whole entry): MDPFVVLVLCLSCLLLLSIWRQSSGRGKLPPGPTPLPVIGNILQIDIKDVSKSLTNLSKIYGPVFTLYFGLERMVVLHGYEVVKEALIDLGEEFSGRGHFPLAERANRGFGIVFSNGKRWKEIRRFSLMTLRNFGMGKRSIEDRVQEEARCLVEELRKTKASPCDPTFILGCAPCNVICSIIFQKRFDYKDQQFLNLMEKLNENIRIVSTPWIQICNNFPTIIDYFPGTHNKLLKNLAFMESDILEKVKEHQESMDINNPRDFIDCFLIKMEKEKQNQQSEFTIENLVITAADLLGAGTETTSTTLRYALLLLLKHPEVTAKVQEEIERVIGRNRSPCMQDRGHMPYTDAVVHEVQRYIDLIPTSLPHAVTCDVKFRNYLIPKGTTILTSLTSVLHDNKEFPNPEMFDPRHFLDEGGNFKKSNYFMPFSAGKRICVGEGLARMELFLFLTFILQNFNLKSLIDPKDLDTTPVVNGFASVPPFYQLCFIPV

COc1cc2c(NC3CCN(C(C)C)CC3)cc(C3CCCCC3)nc2cc1OCCCN1CCCC1
GI50 (MV4-11): > 10000 nM
IC50 [1]: 1400 to 10000 nM
LC50 (THLE-2): 83800 nM
inhibition of growth at 1 µM (OCI-Ly3 [2]): 0%
IC50 [3]: 0.7 nM
IC50 [4]: 0.5 to 2 nM
GI50 [5]: > 10000 nM
inhibition of growth at 1 µM (OCI-Ly10 [6]): 0%
IC50 [7]: 1400 to 2400 nM
IC50 [8]: 0.7 to 29 nM
IC50 [9]: 619 nM
IC50 [10]: 180 nM

COc1cc2c(NC3CCN(C)CC3)cc(C)nc2cc1OCCCN1CCCC1
IC50 [3]: 6 nM
inhibition of growth at 10 µM [11]: 14%
IC50 [9]: 929 nM

COc1cc2c(NC3CCN(C(C)C)CC3)cc(-c3ccc(C)o3)nc2cc1OCCCN1CCCC1
Papp at 18 h, 50 µM [12]: 2.58 ×10⁻⁶ cm/s
GI50 (MV4-11): 649 nM
inhibition at 10 min, 10 µM (CYP2C19): 0%
Stability [13]: 64%
inhibition at 10 min, 10 µM (CYP1A2): 4.3%
LC50 (THLE-2): 1340 nM
IC50 [3]: 3 nM
GI50 (OCI-Ly3 [14]): 898 nM
remaining at 20 min, 1 µM [15]: 36.9%
half-life at 1 µM [16]: 18 min
GI50 (OCI-Ly10 [17]): 792 nM
GI50 [5]: 247 nM
inhibition at 10 min, 10 µM (CYP2C9): 6.1%
inhibition at 10 min, 10 µM (CYP2D6): 11.4%
inhibition at 10 min, 10 µM (CYP3A4): 0%
t1/2 [18]: 102 min
IC50 [9]: 231 nM

COc1cc2c(NC3CCN(C)CC3)cc(N3CCN(C)CC3)nc2cc1OCCCN1CCCC1
IC50 [3]: 42 nM
inhibition of growth at 10 µM [11]: 14%
IC50 [9]: 945 nM

COc1cc2c(NC3CCN(C)CC3)cc(-c3ccoc3)nc2cc1OCCCN1CCCC1
Papp at 18 h, 50 µM [12]: 0.22 ×10⁻⁶ cm/s
inhibition of growth at 10 µM [19]: 54%
LC50 (THLE-2): 22300 nM
IC50 [3]: 7 nM
GI50 (OCI-Ly3 [14]): > 4000 nM
GI50 (OCI-Ly10 [17]): 386 nM
GI50 [5]: 4560 nM
IC50 [9]: 978 nM
